Laboratory results published in patent publication US6399561B1, “Methods and compositions for bleaching a dye in solution” (Novozymes A/S, priority 1998, dated 2002).

How the values were obtained:
Assay type in all cases: biochemical
[1] = target: T1, Polyporus pinsitus laccase (Trametes villosa, UniProt Q99044); assay: Bleaching of methyl orange with laccase and -NOH-CO- type mediators (microtitre plate, end-point absorbance)
T1 construct: made in house
T1 sequence (Q99044 22-520): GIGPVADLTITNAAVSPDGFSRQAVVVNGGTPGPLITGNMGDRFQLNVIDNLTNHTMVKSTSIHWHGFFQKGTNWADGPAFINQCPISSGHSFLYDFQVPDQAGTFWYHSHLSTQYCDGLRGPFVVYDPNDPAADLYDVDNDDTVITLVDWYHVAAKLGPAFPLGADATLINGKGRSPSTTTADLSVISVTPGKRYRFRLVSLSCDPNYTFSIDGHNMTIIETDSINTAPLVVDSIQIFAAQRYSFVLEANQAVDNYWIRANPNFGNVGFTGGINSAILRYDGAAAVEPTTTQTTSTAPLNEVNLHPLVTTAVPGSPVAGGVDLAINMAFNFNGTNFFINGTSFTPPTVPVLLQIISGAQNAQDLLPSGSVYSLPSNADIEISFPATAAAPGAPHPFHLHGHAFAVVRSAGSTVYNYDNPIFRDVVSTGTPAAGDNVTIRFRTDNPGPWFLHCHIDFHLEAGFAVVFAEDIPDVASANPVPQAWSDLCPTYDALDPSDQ
Procedure: Polyporus pinsitus laccase as described in Example 1.
(§1) Methyl orange (Merck, Germany)
50 μl 0.1 mg/ml methyl orange
125 μl 0.1 M Britton-Robinson buffer (see example 1)
(§2) 25 μl 2 mM mediator or water (as reference)
50 μl laccase dilution (1:400)
Methyl orange, buffer and mediator are mixed in a microtitre plate and the reaction is started by addition of laccase. Absorbance is measured at 450 nm after 15 min.
N-Hydroxyacetanilide and N-(4-cyanophenyl)-N-hydroxyacetamide were tested as mediators in bleaching of methyl orange with a laccase at pH 4-6. Low values represent the best performance.

[2] = system: Recombinant Coprinus cinereus laccase (rCcL); assay: Bleaching of methyl orange using rCcL and NOH-type enhancing agents (initial bleaching rate); settings: for Initial changes per minute in A464 nm of methyl orange using rCcL: rCcL solution diluted 1:200, 0.2 mM mediator, 30° C., large negative numbers = best performance
Procedure: (§3) Britton-Robinson buffer is composed of:
as §1
(§4) Reactions were started by addition of enzyme. Absorbance at 464 nm was followed for 3 minutes (readings every 5 seconds) on a Cobas Fara at 30° C. Initial bleaching rates were determined from the first linear part of the progress curves.
(§5) The N—OH compounds listed above were tested as laccase mediators in bleaching of methyl orange with three recombinant laccases (rPpL, rMtL and rCcL) at various pH values. Large negative numbers represent the best performance.

[3] = system: Recombinant Myceliophthora thermophila laccase (rMtL); assay: Bleaching of methyl orange using rMtL and NOH-type enhancing agents (initial bleaching rate); settings: rMtL solution diluted 1:300, 0.2 mM mediator, 30° C., large negative numbers = best performance
Procedure: as §3, §1, §4, §5

[4] = target: T1, Polyporus pinsitus laccase; assay: Bleaching of methyl orange using rPpL and NOH-type enhancing agents (initial bleaching rate); settings: rPpL solution diluted 1:200, 0.2 mM mediator, 30° C., large negative numbers = best performance
Procedure: as §3, §1, §4, §5

[5] = target: T1, Polyporus pinsitus laccase; assay: Bleaching of various dyes with laccase and N-Hydroxyacetanilide (microtitre plate, end-point absorbance); settings: + enzyme + mediator, pH 5, laccase dilution 1:400, low values = best performance
Procedure: Polyporus pinsitus laccase as described in Example 1, except that the concentration is 1726 LACU/ml.
125 μl 0.1 M Britton-Robinson buffer, pH 5 (see example 1)
as §2
50 μl laccase dilution (1:400) or water (as reference)
Dye, buffer and mediator are mixed in a micro-titre plate and the reaction is started by addition of laccase. Absorbance is measured at 595 nm after 5 min.
N-Hydroxyacetanilide was used as mediator in bleaching of various dyes with a laccase. Low values represent the best performance.

[6] = pH 4, laccase dilution 1:400, low values = best performance
[7] = pH 5, laccase dilution 1:400, low values = best performance
[8] = pH 6, laccase dilution 1:400, low values = best performance

Compound	Absorbance measured at 450 nm after 15 minutes [1, 6]	Absorbance measured at 450 nm after 15 minutes [1, 7]	Absorbance measured at 450 nm after 15 minutes [1, 8]	Initial changes per minute in A464 nm of methyl orange using rCcL ([2]; pH 4)	Initial changes per minute in A464 nm of methyl orange using rCcL ([2]; pH 5)	Initial changes per minute in A464 nm of methyl orange using rCcL ([2]; pH 6)	Initial changes per minute in A464 nm of methyl orange using rCcL ([2]; pH 7)	Initial changes per minute in A464 nm of methyl orange using rCcL ([2]; pH 8)	Initial changes per minute in A464 nm of methyl orange using rMtL ([3]; pH 4)	Initial changes per minute in A464 nm of methyl orange using rMtL ([3]; pH 5)	Initial changes per minute in A464 nm of methyl orange using rMtL ([3]; pH 6)	Initial changes per minute in A464 nm of methyl orange using rMtL ([3]; pH 7)	Initial changes per minute in A464 nm of methyl orange using rPpL ([4]; pH 4)	Initial changes per minute in A464 nm of methyl orange using rPpL ([4]; pH 5)	Initial changes per minute in A464 nm of methyl orange using rPpL ([4]; pH 6)	Initial changes per minute in A464 nm of methyl orange using rPpL ([4]; pH 7)	also measured
CC(=O)N(O)c1ccc(C#N)cc1 [N-(4-cyanophenyl)-N-hydroxyacetamide]	0.065	0.055	0.083														bleaching a dye in solution, result in words ([1]; laccase, pH 4-6): as effective as N-Hydroxyacetanilide
CC(=O)N(O)c1ccccc1 [N-hydroxyacetanilide, N-Hydroxyacetanilide]	0.077	0.068	0.087	−0.521 per minute	−0.719 per minute	−0.674 per minute	−0.498 per minute	−0.136 per minute	−1.306 per minute	−1.847 per minute	−0.630 per minute	−0.101 per minute	−4.743 per minute	−6.528 per minute	−1.837 per minute	−0.055 per minute	bleaching of methyl orange, result in words ([2]; summary of Tables 1-3 (rCcL, rMtL and rPpL, various pH)): surprisingly good compared with the other N—OH types enhancing agents; Absorbance measured at 595 nm after 5 minutes ([5]; dye Acid blue 45): 0.123; Absorbance measured at 595 nm after 5 minutes ([5]; dye Acid blue 113): 0.062; Absorbance measured at 595 nm after 5 minutes ([5]; dye CSB): 0.207; Absorbance measured at 595 nm after 5 minutes ([5]; dye Cibacron Marine): 0.235
[O-][n+]1cccc2ccccc21 [Quinoline-N-oxide]				−0.004 per minute	−0.006 per minute	−0.010 per minute	−0.008 per minute	−0.004 per minute	−0.016 per minute	−0.011 per minute	−0.002 per minute	0.000 per minute	−0.074 per minute	−0.041 per minute	−0.016 per minute	−0.002 per minute	
ON=C(c1ccccn1)c1ccccn1 [di-2-pyridylketone oxime]				−0.004 per minute	−0.006 per minute	−0.008 per minute	−0.006 per minute	−0.001 per minute	−0.026 per minute	−0.010 per minute	−0.001 per minute	0.001 per minute	−0.124 per minute	−0.107 per minute	−0.053 per minute	−0.005 per minute	
CCOc1ccc(N=[N+]([O-])c2ccc(OCC)cc2)cc1 [p,p′-azoxydiphenetole, p,p′-Azoxydiphenetole]				0.116 per minute	0.196 per minute	0.002 per minute	0.008 per minute	0.019 per minute	0.019 per minute	0.086 per minute	0.012 per minute	0.020 per minute	0.121 per minute	0.013 per minute	0.017 per minute	0.018 per minute	
